According to patent publication US11149037B2, “Pyrazole MAGL inhibitors” (H. Lundbeck A/S, priority 2017, dated 2021):

What was measured:
MAGL [1] = target: T1, MAGL (Mus musculus (Mouse), UniProt O35678); test: In vitro competitive activity-based protein profiling, mouse proteomes (brain membrane fraction or cell lysates); format: biochemical; conditions: mouse proteome, read-out: MAGL % inh. 1 μM (mouse)
How it was run: (§1)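 Activity of MAGL and FAAH was quantified from fluorescent gel band intensities. Beforehand, inhibitors at several concentrations competed against subsequent probe labelling (FP-Rh, JW912 or HT-01) in species-matched proteomes, each step 30 min at 37° C.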

FAAH [2] = target: T2, FAAH (Mus musculus (Mouse), UniProt O08914); test: as above; format: biochemical; conditions: mouse proteome, read-out: FAAH % inh. 1 μM (mouse)
T2 sequence (O08914 whole entry): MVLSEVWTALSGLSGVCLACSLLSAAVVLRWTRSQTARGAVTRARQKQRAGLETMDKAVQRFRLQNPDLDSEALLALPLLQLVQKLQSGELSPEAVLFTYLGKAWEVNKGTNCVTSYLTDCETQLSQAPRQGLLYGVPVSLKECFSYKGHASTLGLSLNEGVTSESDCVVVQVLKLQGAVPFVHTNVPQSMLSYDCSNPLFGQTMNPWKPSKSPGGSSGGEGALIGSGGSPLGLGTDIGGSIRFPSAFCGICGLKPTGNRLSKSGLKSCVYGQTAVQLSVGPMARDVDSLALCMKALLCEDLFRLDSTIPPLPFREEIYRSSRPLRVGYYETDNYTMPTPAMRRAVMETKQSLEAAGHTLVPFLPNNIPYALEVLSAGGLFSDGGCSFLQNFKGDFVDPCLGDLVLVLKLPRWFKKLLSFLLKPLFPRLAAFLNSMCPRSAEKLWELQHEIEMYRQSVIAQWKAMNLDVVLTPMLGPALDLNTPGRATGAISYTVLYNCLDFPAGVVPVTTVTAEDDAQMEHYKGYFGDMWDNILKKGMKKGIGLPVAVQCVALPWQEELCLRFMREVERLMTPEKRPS
How it was run: as §1

MAGL [3] = target: T1, MAGL; test: Mouse brain proteomes from inhibitor treated mice (oral gavage, sacrificed 4 h after administration); format: in vivo; conditions: 5 mg/kg oral gavage
Method: (§2) Preparation of Mouse Brain Proteomes from Inhibitor Treated Mice.
(§3) Inhibitors were administered to wild-type C57B1/6J by oral gavage in a vehicle of polyethylene glycol. Each animal was sacrificed 4 h following administration and brain proteomes were prepared and analyzed according to previously established methods (See Niphakis, M. J., et al. (2011) ACS Chem. Neurosci. and Long, J. Z., et al. Nat. Chem. Biol. 5:37-44).

FAAH [4] = target: T2, FAAH; test: as above; format: in vivo; conditions: 5 mg/kg oral gavage
Method: as §2, §3

FAAH [5] = target: FAAH (Homo sapiens (Human), UniProt O00519); test: In vitro competitive activity-based protein profiling, human proteomes (prefrontal cortex or PC3 cell membrane fractions); format: biochemical; conditions: human proteome; for inhibition at 1 µM: read-out: FAAH % inh. 1 μM (human)
FAAH (Homo sapiens (Human), UniProt O00519), sequence (O00519 whole entry): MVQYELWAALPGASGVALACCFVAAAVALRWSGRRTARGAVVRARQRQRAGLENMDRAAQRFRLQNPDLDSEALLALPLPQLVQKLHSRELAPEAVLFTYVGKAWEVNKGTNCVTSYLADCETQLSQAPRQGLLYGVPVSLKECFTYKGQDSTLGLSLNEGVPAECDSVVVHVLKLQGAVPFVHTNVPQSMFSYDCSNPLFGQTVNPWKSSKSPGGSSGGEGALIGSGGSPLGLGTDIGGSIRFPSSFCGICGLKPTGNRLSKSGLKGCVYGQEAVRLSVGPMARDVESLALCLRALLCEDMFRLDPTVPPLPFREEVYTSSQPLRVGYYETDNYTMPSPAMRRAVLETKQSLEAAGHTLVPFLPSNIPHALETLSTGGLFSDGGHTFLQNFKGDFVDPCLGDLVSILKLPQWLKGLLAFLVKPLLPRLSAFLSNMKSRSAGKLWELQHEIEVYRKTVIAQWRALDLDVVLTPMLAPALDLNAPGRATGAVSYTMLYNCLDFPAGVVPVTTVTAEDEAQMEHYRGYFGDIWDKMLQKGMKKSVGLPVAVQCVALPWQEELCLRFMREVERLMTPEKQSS
How it was run: as §1

MAGL [6] = target: MAGL (Homo sapiens (Human), UniProt Q99685); test: as above; format: biochemical; conditions: human proteome; for inhibition at 1 µM: read-out: MAGL % inh. 1 μM (human)
MAGL (Homo sapiens (Human), UniProt Q99685), sequence (Q99685 whole entry): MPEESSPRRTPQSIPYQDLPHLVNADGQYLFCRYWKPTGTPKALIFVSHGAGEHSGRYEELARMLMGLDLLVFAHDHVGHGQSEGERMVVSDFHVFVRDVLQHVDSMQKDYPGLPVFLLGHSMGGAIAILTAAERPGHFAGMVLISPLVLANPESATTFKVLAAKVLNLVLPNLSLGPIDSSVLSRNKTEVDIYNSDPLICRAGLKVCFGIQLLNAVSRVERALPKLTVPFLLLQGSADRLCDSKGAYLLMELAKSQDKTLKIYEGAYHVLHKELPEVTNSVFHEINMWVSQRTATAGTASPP
How it was run: as §1

T1 sequence (O35678 whole entry): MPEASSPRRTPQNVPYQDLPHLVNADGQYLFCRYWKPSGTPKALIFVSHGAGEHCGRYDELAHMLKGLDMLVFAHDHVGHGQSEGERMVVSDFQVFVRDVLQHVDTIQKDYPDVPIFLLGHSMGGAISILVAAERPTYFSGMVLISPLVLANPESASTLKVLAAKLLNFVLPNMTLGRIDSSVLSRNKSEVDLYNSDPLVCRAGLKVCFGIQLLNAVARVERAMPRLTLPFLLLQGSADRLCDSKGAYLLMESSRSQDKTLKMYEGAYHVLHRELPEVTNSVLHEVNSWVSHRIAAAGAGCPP

Row | Compound | inhibition at 1 µM (MAGL [1]) | inhibition at 1 µM (FAAH [2]) | inhibition at 1 µM (FAAH [5]) | inhibition at 1 µM (MAGL [6]) | IC50 (FAAH [5]) | IC50 (MAGL [6]) | MAGL % inh. 5 mg/kg (mouse) (MAGL [3]) | FAAH % inh. 5 mg/kg (mouse) (FAAH [4])
1 | CC(=O)Nc1ccn(C(=O)N2CCC3(CCCN3Cc3ccc(C(F)(F)F)cc3NCCCC(=O)O)CC2)n1 [Example 79, 4-((2-((8-(3-Acetamido-1H-pyrazole-1-carbonyl)-1,8-diazaspiro[4.5]decan-1-yl)methyl)-5-(trifluoromethyl)phenyl)amino)butanoic acid] | > 75% | 0 to 25% | 0 to 25% | > 75% |  |  | D (% inhibition is greater than or equal to 0% and less than 25%) | D (% inhibition is greater than or equal to 0% and less than 25%)
2 | CS(=O)(=O)Nc1ccn(C(=O)N2CCC(Oc3ccc(C(F)(F)F)cc3-c3nnco3)CC2)n1 [Example 96, N-(1-(4-(2-(1,3,4-Oxadiazol-2-yl)-4-(trifluoromethyl)phenoxy)piperidine-1-carbonyl)-1H-pyrazol-3-yl)methanesulfonamide] | > 75% | 0 to 25% | 0 to 25% | > 75% |  |  | D (% inhibition is greater than or equal to 0% and less than 25%) | D (% inhibition is greater than or equal to 0% and less than 25%)
3 | CC(=O)Nc1ccn(C(=O)N2CCC3(CCCN3Cc3cc4cc(C(N)=O)ccc4[nH]3)CC2)n1 [Example 14, 2-((8-(3-acetamido-1H-pyrazole-1-carbonyl)-1,8-diazaspiro[4.5]decan-1-yl)methyl)-1H-indole-5-carboxamide] | 50 to 75% | 0 to 25% | 0 to 25% | > 75% | 1 to 10 µM | < 0.1 µM | D (% inhibition is greater than or equal to 0% and less than 25%) | D (% inhibition is greater than or equal to 0% and less than 25%)
4 | CC(=O)N(Cc1ccc(C(F)(F)F)cc1N1CCCC1)C1(C)CCN(C(=O)n2ccc(NS(C)(=O)=O)n2)CC1 [Example 103, N-(4-Methyl-1-(3-(methylsulfonamido)-1H-pyrazole-1-carbonyl)piperidin-4-yl)-N-(2-(pyrrolidin-1-yl)-4-(trifluoromethyl)benzyl)acetamide] | > 75% | 0 to 25% | 0 to 25% | > 75% |  |  | D (% inhibition is greater than or equal to 0% and less than 25%) | D (% inhibition is greater than or equal to 0% and less than 25%)
5 | CS(=O)(=O)Nc1ccn(C(=O)N2CCC3(CCN(Cc4ccc(Cl)cc4N4CCCC4)C3)CC2)n1 [Example 63, N-(1-(2-(4-Chloro-2-(pyrrolidin-1-yl)benzyl)-2,8-diazaspiro[4.5]decane-8-carbonyl)-1H-pyrazol-3-yl)methanesulfonamide] | > 75% | 0 to 25% | 0 to 25% | > 75% | 1 to 10 µM | < 0.1 µM | C (% inhibition is greater than or equal to 25% and less than 50%) | D (% inhibition is greater than or equal to 0% and less than 25%)
6 | CS(=O)(=O)Nc1ccn(C(=O)N2CCC(Oc3ccc(C(F)(F)F)cc3-n3cccn3)CC2)n1 [Example 98, N-(1-(4-(2-(1H-Pyrazol-1-yl)-4-(trifluoromethyl)phenoxy)piperidine-1-carbonyl)-1H-pyrazol-3-yl)methanesulfonamide] | > 75% | 0 to 25% | 0 to 25% | > 75% |  |  | D (% inhibition is greater than or equal to 0% and less than 25%) | D (% inhibition is greater than or equal to 0% and less than 25%)
7 | CC(=O)Nc1ccn(C(=O)N2CCC3(CCCN3C(=O)c3ccc(C#N)c(C4CC4)c3)CC2)n1 [Example 87, N-(1-(1-(4-Cyano-3-cyclopropylbenzoyl)-1,8-diazaspiro[4.5]decane-8-carbonyl)-1H-pyrazol-3-yl)acetamide] | > 75% | 0 to 25% | 0 to 25% | > 75% |  |  | D (% inhibition is greater than or equal to 0% and less than 25%) | D (% inhibition is greater than or equal to 0% and less than 25%)
8 | CN(Cc1ccc(C(F)(F)F)cc1N1CCCC1)C1(C)CCN(C(=O)n2ccc(NS(C)(=O)=O)n2)CC1 [Example 75, N-(1-(4-Methyl-4-(methyl(2-(pyrrolidin-1-yl)-4-(trifluoromethyl)benzyl)amino)piperidine-1-carbonyl)-1H-pyrazol-3-yl)methanesulfonamide] | > 75% | 0 to 25% | 0 to 25% | > 75% |  |  | A (% inhibition is greater than or equal to 75%) | D (% inhibition is greater than or equal to 0% and less than 25%)

The next lines start with results.

Row | inhibition at 1 µM (MAGL [1]) | inhibition at 1 µM (FAAH [2]) | inhibition at 1 µM (FAAH [5]) | inhibition at 1 µM (MAGL [6]) | IC50 (FAAH [5]) | IC50 (MAGL [6]) | Compound | MAGL % inh. 5 mg/kg (mouse) (MAGL [3]) | FAAH % inh. 5 mg/kg (mouse) (FAAH [4])
9 | > 75% | 0 to 25% | 0 to 25% | > 75% |  |  | CS(=O)(=O)Nc1ccn(C(=O)N2CCN(Cc3ccc(Cl)c(N4CC[C@H](F)C4)c3)CC2)n1 [Example 117, (S)-N-(1-(4-(4-Chloro-3-(3-fluoropyrrolidin-1-yl)benzyl)piperazine-1-carbonyl)-1H-pyrazol-3-yl)methanesulfonamide] | B (% inhibition is greater than or equal to 50% and less than 75%) | D (% inhibition is greater than or equal to 0% and less than 25%)
10 | > 75% | 0 to 25% | 0 to 25% | > 75% |  |  | CC(=O)Nc1ccn(C(=O)N2CCN(Cc3ccc(Cl)cc3OCCCC(=O)O)CC2)n1 [Example 106, 4-(2-((4-(3-Acetamido-1H-pyrazole-1-carbonyl)piperazin-1-yl)methyl)-5-chlorophenoxy)butanoic acid] | D (% inhibition is greater than or equal to 0% and less than 25%) | D (% inhibition is greater than or equal to 0% and less than 25%)
11 | > 75% | 0 to 25% | 0 to 25% | > 75% |  |  | C[C@H]1CN(C(=O)n2ccc(NS(C)(=O)=O)n2)CCN1Cc1ccc(Cl)c(N2CC3COCC3C2)c1 (stereo partly drawn) [Example 143, N-(1-((3S)-4-(4-Chloro-3-(tetrahydro-1H-furo[3,4-c]pyrrol-5(3H)-yl)benzyl)-3-methylpiperazine-1-carbonyl)-1H-pyrazol-3-yl)methanesulfonamide] | D (% inhibition is greater than or equal to 0% and less than 25%) | D (% inhibition is greater than or equal to 0% and less than 25%)
12 | > 75% | 0 to 25% | 0 to 25% | > 75% |  |  | C[C@@H]1CN(Cc2ccc(Cl)c(N3CC4COCC4C3)c2)CCN1C(=O)n1ccc(NS(C)(=O)=O)n1 (stereo partly drawn) [Example 137, N-(1-((2R)-4-(4-Chloro-3-(tetrahydro-1H-furo[3,4-c]pyrrol-5(3H)-yl)benzyl)-2-methylpiperazine-1-carbonyl)-1H-pyrazol-3-yl)methanesulfonamide] | D (% inhibition is greater than or equal to 0% and less than 25%) | D (% inhibition is greater than or equal to 0% and less than 25%)
13 | > 75% | > 75% | 25 to 50% | > 75% | 1 to 10 µM | < 0.1 µM | CC(=O)Nc1ccn(C(=O)N2CCC3(CCN(C(=O)c4cc5ccc(C(F)(F)F)cc5s4)C3)CC2)n1 [Example 154, N-(1-(2-(6-(Trifluoromethyl)benzo[b]thiophene-2-carbonyl)-2,8-diazaspiro[4.5]decane-8-carbonyl)-1H-pyrazol-3-yl)acetamide] | B (% inhibition is greater than or equal to 50% and less than 75%) | C (% inhibition is greater than or equal to 25% and less than 50%)
14 | > 75% | > 75% | > 75% | > 75% | 1 to 10 µM | < 0.1 µM | CC(=O)Nc1ccn(C(=O)N2CCN(Cc3ccc(-c4ccccc4)cc3C)CC2)n1 [Example 131, N-(1-(4-((3-Methyl-[1,1′-biphenyl]-4-yl)methyl)piperazine-1-carbonyl)-1H-pyrazol-3-yl)acetamide] | A (% inhibition is greater than or equal to 75%) | A (% inhibition is greater than or equal to 75%)
15 | > 75% | 0 to 25% | 0 to 25% | > 75% |  |  | C[C@@H]1CCCN1c1cc(CN2CCN(C(=O)n3ccc(NS(C)(=O)=O)n3)CC2)ccc1C(F)(F)F [Example 156, (R)-N-(1-(4-(3-(2-Methylpyrrolidin-1-yl)-4-(trifluoromethyl)benzyl)piperazine-1-carbonyl)-1H-pyrazol-3-yl)methanesulfonamide] | A (% inhibition is greater than or equal to 75%) | D (% inhibition is greater than or equal to 0% and less than 25%)
